# Experimental data as given in paper PMC10685318, “Trans-cyclosulfamidate mannose-configured cyclitol allows isoform-dependent inhibition of GH47 α-D-mannosidases through a bump–hole strategy” (Chemical Science, 2023).
# Like-named read-outs stand apart in the source and are kept apart here.
# Molecular target: T1, MAN2C1 (Homo sapiens, UniProt Q9NTJ4)
# T1 construct: expressed in transfected cells
# T1 sequence (Q9NTJ4 1-1040): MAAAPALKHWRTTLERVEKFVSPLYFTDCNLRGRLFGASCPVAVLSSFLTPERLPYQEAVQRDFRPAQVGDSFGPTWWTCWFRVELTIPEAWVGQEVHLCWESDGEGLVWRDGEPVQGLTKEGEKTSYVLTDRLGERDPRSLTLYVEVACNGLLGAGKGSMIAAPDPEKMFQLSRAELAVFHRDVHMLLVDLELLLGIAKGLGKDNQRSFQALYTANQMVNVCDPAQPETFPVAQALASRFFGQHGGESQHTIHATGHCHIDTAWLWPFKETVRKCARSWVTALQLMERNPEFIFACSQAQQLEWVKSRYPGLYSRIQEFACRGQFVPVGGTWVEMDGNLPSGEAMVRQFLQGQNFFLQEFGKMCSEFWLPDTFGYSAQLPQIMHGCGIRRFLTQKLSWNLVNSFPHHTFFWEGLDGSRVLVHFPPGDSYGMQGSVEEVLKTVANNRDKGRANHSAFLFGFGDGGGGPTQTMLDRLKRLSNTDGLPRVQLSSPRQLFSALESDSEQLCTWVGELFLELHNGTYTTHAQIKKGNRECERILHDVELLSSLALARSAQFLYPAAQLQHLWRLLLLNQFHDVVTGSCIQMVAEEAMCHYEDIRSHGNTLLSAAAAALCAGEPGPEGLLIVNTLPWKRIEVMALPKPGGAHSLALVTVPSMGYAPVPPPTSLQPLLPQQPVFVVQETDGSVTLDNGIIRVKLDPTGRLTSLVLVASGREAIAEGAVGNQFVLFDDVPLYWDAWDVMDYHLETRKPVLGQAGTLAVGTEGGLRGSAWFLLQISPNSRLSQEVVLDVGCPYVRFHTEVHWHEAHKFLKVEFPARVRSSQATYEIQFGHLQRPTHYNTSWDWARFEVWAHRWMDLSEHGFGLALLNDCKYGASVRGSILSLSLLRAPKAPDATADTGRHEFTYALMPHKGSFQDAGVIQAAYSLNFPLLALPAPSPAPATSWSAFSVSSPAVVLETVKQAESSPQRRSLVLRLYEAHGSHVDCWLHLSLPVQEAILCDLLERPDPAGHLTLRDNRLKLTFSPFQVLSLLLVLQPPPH
# Experiment: 4-MU-α-man activity assay in overexpressed cell lysates
# Type: biochemical
smiles,measurement,setting,value
"O=S1(=O)N[C@@H]2[C@@H](O)[C@@H](O)[C@H](O)[C@@H](CO)[C@H]2O1 [compound 6, 1,6-trans-manno-cyclosulfamidate]",IC50,"Co2+ (cobalt as the metal ion), read-out: IC50 (apparent)",3.5 ± 1.2 µM
same,IC50,Zn2+ (buffer supplemented with 1 mM ZnCl2 instead of CoCl2),no IC50 value could be determined
same,IC50,"Zn2+ (buffer supplemented with 1 mM ZnCl2 instead of CoCl2), read-out: IC50",> 1000 µM
